Measured values taken from patent publication US20230348362A1, “LIPID COMPOUNDS AND LIPID NANOPARTICLE COMPOSITIONS” (Suzhou Abogen Biosciences Co., Ltd., priority 2021, published 2023).

Key:
Type in all cases: physicochemical
[1] = Lipid nanoparticle size and polydispersity by dynamic light scattering; details: LNP of lipid/DSPC/cholesterol/PEG-lipid 50:10:38.5:1.5 encapsulating hEPO mRNA
Method in brief: (§1)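 LNPs made from ionizable lipid/DSPC/cholesterol/PEG-lipid (50:10:38.5:1.5) and mRNA in citrate pH 4 by microfluidic mixing, lipid:mRNA about 10:1–30:1 w/w, then dialysed into DPBS and filtered. Size and PDI measured by DLS in backscatter mode; encapsulation efficiency measured by RiboGreen assay.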

[2] = Apparent pKa of LNP formulations, TNS fluorescence assay; details: LNP cationic lipid/DSPC/cholesterol/DMG-PEG 50/10/38.5/1.5 mol %
Method in brief: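 LNPs (cationic lipid/DSPC/cholesterol/DMG-PEG 50/10/38.5/1.5 mol %) diluted to 0.1 mg/mL total lipid in citrate/phosphate/borate/NaCl buffers spanning pH 3–9 with TNS. Fluorescence (ex 325, em 435 nm) read at room temperature; pKa taken as the pH at half-maximal intensity from sigmoidal fit.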

[3] = Encapsulation efficiency of lipid nanoparticles, Quant-it Ribogreen RNA assay; details: LNP of lipid/DSPC/cholesterol/PEG-lipid 50:10:38.5:1.5 encapsulating hEPO mRNA
Method in brief: as §1

| Compound | polydispersity [1] | size (nm) [1] | Apparent Pka [2] | Encapsulation Efficiency [3] |
| --- | --- | --- | --- | --- |
| CCCCCCCC/C=C\CCCCCCCC(=O)OCCCCCN(CCO)CCN(CCCCCNC(=O)CC(CCCCCC)CCCCCCCC)C1CCCCCC1 (stereo not shown) [Compound 152] | 0.031 | 83.28 nm | 6.646 | 91.68% |
| CCCCCCCCC(CCCCCCCC)CC(=O)NCCCCCN(CCN(CCO)CCCCCOC(=O)CC(CCCCCCCC)CCCCCCCC)C1CCCCC1 [Compound 73] | 0.049 | 88.45 nm | 6.597 | 92.38% |
| CCCCCCCCCCCC(=O)OCCCCCN(CCN(CCO)CCOCCOC(=O)CC(CCCCCCCC)CCCCCCCC)C1CCC1 [Compound 97] | 0.045 | 76.13 nm | 6.912 | 88.12% |
| CCCCCCCCCCCCCCCCCCOC(=O)CCCCCN(CCN(CCO)CCCCCC(=O)OCC(CCCCCCCC)CCCCCCCC)C1CCCCC1 [Compound 105] | 0.051 | 69.11 nm | 6.328 | 93.35% |
| CCCCCCCC(=O)OCC(CCCCN(CCO)CCN(CCCCC(COC(=O)CCCCCCC)COC(=O)CCCCCCC)C1CCCCC1)COC(=O)CCCCCCC [Compound 141] | 0.128 | 63.69 nm | 6.475 | 88.11% |
| CCCCCCCCOC(CCCCCN(CCO)CCN(CCCCCC(=O)OCC(CCCCCC)CCCCCCCC)C1CCC1)OCCCCCCCC (stereo not shown) [Compound 201] | 0.028 | 91.64 nm | 6.226 | 94.15% |
| CCCCCCCCC(CCCCCC)CC(=O)OCCCCCN(CCO)CCN(CCCCCN(C)C(=O)CC(CCCCCC)CCCCCCCC)C1CCCCCC1 (stereo not shown) [Compound 147] | 0.058 | 85.76 nm | 6.62 | 88.17% |
| CCCCCCCCCCC(=O)OCC(CCCCN(CCO)CCN(CCCCC(COC(=O)CCCCCCCCCC)COC(=O)CCCCCCCCCC)C1CCC1)COC(=O)CCCCCCCCCC [Compound 168] | 0.107 | 78.08 nm | 6.537 | 91.48% |
| CCCCCCCCC(CCCCCC)COC(=O)CCCCCN(CCCCN(CCO)CCCCC(COC(=O)CCCCCCC)COC(=O)CCCCCCC)C1CCCCCC1 (stereo not shown) [Compound 193] | 0.228 | 80.39 nm | 6.666 | 84.30% |
| CCCCCCCCC(CCCCCC)CNC(=O)CCCCCN(CC=C(C)C)CCN(CCO)CCCCC1COC(C(CCCCCC)CCCCCCCC)OC1 (stereo not shown) [Compound 150] | 0.076 | 76.37 nm | 6.586 | 91.34% |
| CCCCC/C=C\CCCC(CCC/C=C\CCCCC)COC(=O)CCCCCN(CCO)CCN(CCCCCC(=O)OCC(CCC/C=C\CCCCC)CCC/C=C\CCCCC)C1CCCCC1 [Compound 18] | 0.049 | 56.64 nm | 6.018 | 96.4% |
| CCCCCCCCC(CCCCCC)COC(=O)CCCCCN(CCO)CCN(CCCCC(COC(=O)CCCCCCC)COC(=O)CCCCCCC)C1CCCCCC1 (stereo not shown) [Compound 142] | 0.055 | 71.85 nm | 6.218 | 87.29% |
| CCCCCCCCCCCOC(=O)CCCCCN(CCN(CCO)CCCCC(COC(=O)CCCCCCC)COC(=O)CCCCCCC)C1CCCC1 [Compound 183] | 0.032 | 103.2 nm | 6.858 | 92.26% |
| CCCCCCCCC(CCCCCC)CNC(=O)CCCCCN(CCCCN(CCO)CCCCC(COC(=O)CCCCCCC)COC(=O)CCCCCCC)C1CCCCCCC1 (stereo not shown) [Compound 199] | 0.162 | 80.14 nm | 6.858 | 94.30% |
| CCCCCCCCC(CCCCCCCC)COC(=O)CCCCCN(CCO)CCN(CCCCCOC(=O)CCCCC=C(CCCCCC)CCCCCC)C1CCC1 [Compound 87] | 0.055 | 70.07 nm | 6.476 | 93.34% |
| CCCCCCCCOC(=O)C(CCCCN(CCN(CCO)CCCCCC(=O)OCC(CCCCCC)CCCCCCCC)C1CCC1)C(=O)OCCCCCCCC (stereo not shown) [Compound 223] | 0.043 | 70.98 nm | 6.395 | 93.03% |
| CCCCCCCC(=O)OCC(CCCCN(CC=C(C)C)CCCCN(CCO)CCCCC(COC(=O)CCCCCCC)COC(=O)CCCCCCC)COC(=O)CCCCCCC [Compound 203] | 0.16 | 131.9 nm | 6.874 | 78.17% |

Other lines, results leading:

| polydispersity [1] | size (nm) [1] | Apparent Pka [2] | Encapsulation Efficiency [3] | Compound |
| --- | --- | --- | --- | --- |
| 0.023 | 75.57 nm | 5.980 | 95.1% | CCCCCCCCC(CCCCCCCC)COC(=O)CCCCCN(CCO)CCN(CCCCCC(=O)OCC(CCCCCCCC)CCCCCCCC)C1CC(OC)C1 (stereo not shown) [Compound 67] |
| 0.066 | 65.77 nm | 6.817 | 93.47% | CCCCCCCCC(CCCCCCCC)CNC(=O)CCCCCN(CC=C(C)C)CCN(CCO)CCCCCC(=O)NCC(CCCCCCCC)CCCCCCCC [Compound 122] |
| 0.040 | 67.32 nm | 6.494 | 89.36% | CCCCCCCCC(CCCCCC)COC(=O)CCCCCN(CCO)CCN(CCCCC(COC(=O)CCCCCCC)COC(=O)CCCCCCC)C1CCCC1 (stereo not shown) [Compound 137] |
| 0.044 | 87.84 nm | 6.147 | 93.93% | CCCCCCCCC(CCCCCCCC)COC(=O)/C=C/CN(CCO)CCN(CCCCCC(=O)OCC(CCCCCCCC)CCCCCCCC)C1CCC1 [Compound 63] |
| 0.032 | 87.87 nm | 6.233 | 92.51% | CCCCCCCCC(CCCCCCCC)COC(=O)CCCCCN(CCO)CCN(CCCCCOC(=O)CCCCCC(CCCCCC)CCCCCC)C1CCC1 [Compound 83] |
| 0.035 | 59.48 nm | 6.757 | 99.2% | CCCCCCCCC(CCCCCCCC)CNC(=O)CCCCCN(CCO)CCN(CCCCCC(=O)OCC(CCCCCCCC)CCCCCCCC)C1CCCC1 [Compound 16] |
| 0.092 | 54.42 nm | 6.253 | 89.8% | CCCCCCCCC(CCCCCCCC)COC(=O)CCCCCN(CCO)CCN(CCCCCC(=O)OCC(CCCCCCCC)CCCCCCCC)Cc1ccc([N+](=O)[O-])cc1 [Compound 38] |
| 0.04 | 57.09 nm | 6.378 | 92.1% | CCCCCCCCC(CCCCCCCC)COC(=O)CCCCCN(CCC)CCN(CCO)CCCCCC(=O)OCC(CCCCCCCC)CCCCCCCC [Compound 32] |
| 0.06 | 72.78 nm | 6.427 | 96.5% | CCCCCCCCC(CCCCCC)COC(=O)CCCCCN(CCO)CCN(CCCCCC(=O)OCC(CCCCCC)CCCCCCCC)C1CCC1 (stereo not shown) [Compound 7] |
| 0.09 | 59.02 nm | 6.073 | 93.5% | CCCCCCCCC(CCCCCCCC)COC(=O)CCCCCN(CCO)CCN(CCCCCC(=O)OCC(CCCCCCCC)CCCCCCCC)C1CCC(C(F)(F)F)CC1 (stereo not shown) [Compound 29] |
| 0.051 | 89.46 nm | 6.742 | 89.65% | CCCCCCCCC(CCCCCC)CNC(=O)CCCCCCN(CCO)CCN(CCCCC(COC(=O)CCCCCCC)COC(=O)CCCCCCC)C1CCCC1 (stereo not shown) [Compound 230] |
| 0.069 | 76.24 nm | 6.108 | 92.05% | CCCCCCCCC(CCCCCCCC)COC(=O)CCCCCN(CCN(CCO)CCOCCC(=O)OCC(CCCCCCCC)CCCCCCCC)C1CCCCC1 [Compound 111] |
| 0.047 | 61.57 nm | 6.212 | 92.26% | CCCCCCCCC(CCCCCCCC)COC(=O)CCCCCN(CC=C(C)C)CCN(CCCCCC(=O)OCC(CCCCCCCC)CCCCCCCC)C1CCC(O)CC1 (stereo not shown) [Compound 126] |
| 0.042 | 84.07 nm | 6.293 | 93.11% | CCCCCCCCC(CCCCCCCC)COC(=O)CCCCCN(CCN(CCO)CCOCCC(=O)OCC(CCCCCCCC)CCCCCCCC)C1CCC1 [Compound 110] |
| 0.068 | 56.3 nm | 6.009 | 93.17% | CCCCCCCCC(CCCCCCCC)COC(=O)CCCCCN(CCO)CCN(CCCCCC(=O)OCC(CCCCCCCC)CCCCCCCC)C1CCC(F)(F)CC1 [Compound 66] |
| 0.059 | 77.33 nm | 6.343 | 93.15% | CCCCCCCCC(CCCCCCCC)COC(=O)CCOCCN(CCO)CCN(CCOCCC(=O)OCC(CCCCCCCC)CCCCCCCC)C1CCC1 [Compound 112] |
| 0.115 | 53.56 nm | 6.131 | 92.9% | CCCCCCCCC(CCCCCCCC)COC(=O)CCCCCN(CCO)CCN(CCCCCC(=O)OCC(CCCCCCCC)CCCCCCCC)C1CCSCC1 [Compound 30] |
